Measured values reported in patent US20220079889A1, “USE OF CANNABANOIDS IN THE TREATMENT OF PROLIFERATIVE DIABETIC RETINOPATHY” (VERDANT PHARMACEUTICALS, LLC, priority 2020, published 2022).

What was measured:
[1] = test system: ED-1-positive cells in the CNV lesions; test: Quantification of macrophage infiltration into CNV lesions; type: in vivo, Brown-Norway rats
Experimental: (§1) To block CB, a specific CBD, Compound 11 described above, was used (R-tech Ueno, Ltd., Tokyo, Japan). After laser injury, the inhibitor (0.3 mg/kg BW) was administered to the animals by daily i.p. injections. As a control, some animals received the same regimen for the vehicle solution alone.
At 1, 3, and 7 days after laser injury and treatment with either CBD or vehicle solution, animals were perfused with 200 ml of PBS/kg BW under deep anesthesia. Subsequently, eyes were enucleated and fixed overnight with 4% PFA, and 10 μm frozen sections of the posterior segment, including the center portion of CNV lesions (6 lesions per eye), were prepared and pre-blocked (PBS containing 10% goat serum, 0.5% gelatin, 3% BSA, and 0.2% Tween 20). […] The photographs of CNV lesions were taken, and the numbers of ED-1-positive cells were counted. To obtain a quantitative index of macrophage numbers in CNV lesions, an optical density plot of the selected area was generated by a histogram graphing tool in the Photoshop imageanalysis software (version 6.0: Adobe Systems, Mountain View, Calif.), as described in the literature (for example, Sakurai et al. (2003) IOVS 44: 3578-85). […]

TNF-α = test: ELISA of RPE-choroid complex after laser injury: TNF-α; type: in vivo, rat; conditions: laser-treated animals, 3 days after laser injury; 0.3 mg/kg BW daily i.p.
Experimental: as §1
(§2) The RPE-choroid complex was carefully isolated from eyes 3 days after photocoagulation and placed in 300 μl of lysis buffer supplemented with protease inhibitors and sonicated. The lysate was centrifuged at 15,000 rpm for 15 minutes at 4° C. and the levels of TNF-α, monocyte chemotactic protein (MCP)-1, and intercellular adhesion molecule (ICAM)-1 were determined with rat TNF-α (BI) bioscience), MCP-1 (BD bioscience) and ICAM-1 (R&D Systems, Minneapolis, Minn.) enzyme-linked immunosorbent assay (ELISA) kits according to the manufacturers' protocols. Total protein concentration was determined using a Bio-Rad Protein Assay Kit (Bio-Rad Laboratories Hercules, Calif.) and dilutions of bovine serum albumin (Bio-Rad Laboratories) as standards.

MCP-1 = test: ELISA of RPE-choroid complex after laser injury: MCP-1; type: in vivo, rat; conditions: laser-treated animals, 3 days after laser injury; 0.3 mg/kg BW daily i.p.
Experimental: as §1, §2

ICAM-1 = test: ELISA of RPE-choroid complex after laser injury: ICAM-1; type: in vivo, rat; conditions: laser-treated animals, 3 days after laser injury; 0.3 mg/kg BW daily i.p.
Experimental: as §1, §2

[2] = test system: IL-1β-induced corneal angiogenesis; test: IL-1β-induced corneal angiogenesis; type: in vivo, BALB/c mice; conditions: 0.3 mg/kg daily i.p.; compared with untreated controls
Experimental: BALB/c mice were anesthetized by intraperitoneal (i.p.) injection of pentobarbital sodium (60 mg/kg). Hydron pellets (0.3 μl) containing 30 ng mouse IL-1β (401-ML, R&D Systems) were prepared and implanted into the corneas. Pellets were positioned 1 mm from the corneal limbus. Implanted eyes were treated with Bacitracin ophthalmic ointment (E. Fougera & Co.) to prevent infection. To block CB, mice received daily i.p. injections of a specific CBD. Compound II (R-tech Ueno Ltd., Tokyo, Japan) as described above. A daily dose of 0.3 mg/kg was administered at day 0 and continued until the sixth day after implantation. Two, four and six days after implantation, digital images of the corneal vessels were obtained and recorded using OpenLab software version 2.2.5 (Improvision Inc.) with standardized illumination and contrast and were saved onto disks. The quantitative analysis of new vessel growth in the mouse corneas was performed using Scion Image software (version 4.0.2, Scion Corp.).

MAO-3 = target: T1, MAO-3 (Homo sapiens, UniProt P27338); conditions: functionally related monoamine oxidase; read-out: IC50 against MAO-3; cited from earlier work
T1 sequence (P27338 1-520): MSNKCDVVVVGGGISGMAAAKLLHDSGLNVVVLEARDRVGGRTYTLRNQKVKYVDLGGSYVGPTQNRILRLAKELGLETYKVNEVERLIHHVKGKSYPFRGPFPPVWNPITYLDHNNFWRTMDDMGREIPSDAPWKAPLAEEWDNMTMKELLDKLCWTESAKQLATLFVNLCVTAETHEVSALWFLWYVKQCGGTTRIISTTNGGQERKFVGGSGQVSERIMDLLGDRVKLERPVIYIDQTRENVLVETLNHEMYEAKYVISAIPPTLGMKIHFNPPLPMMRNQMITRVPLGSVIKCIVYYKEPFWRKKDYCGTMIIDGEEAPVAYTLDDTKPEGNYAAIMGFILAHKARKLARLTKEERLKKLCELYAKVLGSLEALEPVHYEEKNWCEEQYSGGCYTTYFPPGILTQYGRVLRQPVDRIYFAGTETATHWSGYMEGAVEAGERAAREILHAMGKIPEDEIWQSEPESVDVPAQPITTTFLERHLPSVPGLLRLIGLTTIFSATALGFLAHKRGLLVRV

CC(=O)Nc1nc(CCc2ccc(NC(=N)NN)cc2)c(Cc2ccc(S(C)(=O)=O)cc2)s1 [Compound II]
reduction of number of accumulated macrophages ([1]; 3 days after laser injury, 0.3 mg/kg BW daily i.p., n=4, p<0.05): 41%
effect on accumulation of macrophages in the CNV lesions (in words) ([1]; laser injury model, rats): significantly decreased
protein level of TNF-α in the RPE-choroid complex (TNF-α): 360 ± 12 pg/mg
protein level of MCP-1 in the RPE-choroid complex (MCP-1): 662 ± 52 pg/mg
protein level of ICAM-1 in the RPE-choroid complex (ICAM-1): 57 ± 2 ng/mg
effect on corneal angiogenesis (in words) [2]: effectively suppresses corneal angiogenesis
IC50 (MAO-3): > 10 µM
